Among the data in PubChem BioAssay (NCI) are TGI values, retold here.

The test relates to P388/ADR leukemia. The test is described as follows: NCI tumour cell line growth inhibition, 48 h.

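Test compounds were applied to cells in 96-well plates for 48 hours at 5 doses. TGI denotes the concentration required for complete inhibition of growth.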

Regarding `CO[C@@]12[C@H](COC(N)=O)C3=C(C(=O)C(C)=C(N)C3=O)N1C[C@@H]1N[C@@H]12`, the TGI is 16 µM.
